This is an account of results in patent publication US20260250322A1, “NEW PEPTIDES AS SELECTIVE IL-23 RECEPTOR INHIBITORS” (SANOFI, priority 2023, published 2026).

In test [1] the test system is IL-23 induced STAT3 signaling. In words: Inhibition of IL-23 induced STAT3 signaling in HEK-Blue IL-23 cells (SEAP reporter). Particulars: human IL-23 0.25 ng/ml, read-out: Inhibition of IL-23 induced pSTAT3 (IC50 nM). Format: cell-based. The source says:
HEK-Blue™ IL-23 cells (Invivogen) are designed for the detection of bioactive human (hIL-23) and murine IL-23 (mIL-23) by monitoring the activation of the STAT3 pathway. Binding of IL-23 to its receptor on the surface of HEK-Blue™ IL-23 cells triggers a signaling cascade leading to the activation of STAT3 and the subsequent production of secreted embryonic alkaline phosphatase (SEAP). This can be readily assessed using QUANTI-Blue™ Solution, a SEAP detection reagent.
HEK-Blue™ IL-23 cells were cultured as described by Invivogen.
On the first day of assay 10 μL of the HEK-Blue IL-23 cell suspension (final concentration: 10,000 cells/well) and 10 μl of serially diluted compound solutions were dispensed into a 384-well assay plate. After pre-incubation of the reaction mixtures at 37° C./5% CO2/95% humidity for 60 minutes, 10 μl of the humanIL-23 cytokine (final concentration: 0.25 ng/ml) was added to each well for the STAT3 signaling activation. The plate was incubated overnight at 37° C./5% CO2/95% humidity.
On the second day 20 μl per well of Quanti-Blue detection solution (prepared according to the manufacture instruction) was dispensed into a new 384-well plate and followed by the transfer of 5 μl supernatant of the overnight incubated cell/sample mixtures. After incubation of 45 min at room temperature signals were measured with PHERAstar (BMG) at OD 620-655 nm.
Dose response data were fitted with XLfit.

For the next test, the target named is T1, human IL-23R (Homo sapiens, UniProt Q5VWK5).
T1 sequence (Q5VWK5 24-355 limits assumed): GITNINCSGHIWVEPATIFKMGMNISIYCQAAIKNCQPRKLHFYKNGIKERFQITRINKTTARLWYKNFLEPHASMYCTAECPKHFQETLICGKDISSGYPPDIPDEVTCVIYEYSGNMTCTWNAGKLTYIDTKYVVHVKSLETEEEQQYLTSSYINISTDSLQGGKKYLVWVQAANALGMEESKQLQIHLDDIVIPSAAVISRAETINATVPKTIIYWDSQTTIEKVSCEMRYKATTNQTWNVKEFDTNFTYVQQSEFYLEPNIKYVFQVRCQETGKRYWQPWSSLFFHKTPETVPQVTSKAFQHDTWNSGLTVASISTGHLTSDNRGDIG
Kind of test: Human ELISA IL-23/IL-23R binding inhibition. To be noted: human IL-23 coated, recombinant human IL-23R-Fc chimera. The procedure: Antagonism of peptide compounds for human interleukin-23 receptor inhibitors, was determined by an ELISA assay.
A 384-well plate was coated with 50 μl/well of human IL-23 at a final concentration of 1 μg/ml and incubated overnight at 4° C. The wells were washed 3 times with 80 μl wash buffer and blocked with 80 μl blocking buffer for 60 minutes at room temperature and washed again. 20 μl of serially diluted test peptides was added to each well and subsequently 20 μl of recombinant human IL-23R-Fc chimera at final concentration of 0.1 μg/ml. The plate was incubated for 60 minutes at room temperature. After the wells were washed, bound IL-23R-Fc was detected with goat anti-hu-lgG1-HRP antibody. Signals were visualized with QuantaBlu Fluorogenic Peroxidase Substrate.

Each structure is given as a SMILES string. Bridge positions count the residues as written; N and C are the ends. Square brackets hold non-standard residues; d marks the D form. Peptide text beside a SMILES is read from it. Trp(1-Me) = Cn1cc(C[C@H](N)C(=O)O)c2ccccc21; dAla(4-thiazolyl) = N[C@H](Cc1cscn1)C(=O)O; 1Nal = N[C@@H](Cc1cccc2ccccc12)C(=O)O; 2Nal = N[C@@H](Cc1ccc2ccccc2c1)C(=O)O; Cit = NC(=O)NCCC[C@H](N)C(=O)O; αMeL = CC(C)C[C@](C)(N)C(=O)O; Aib = CC(C)(N)C(=O)O

For `COc1ccc(C[C@@H]2NC(=O)[C@H](CCCNC(=N)N)NC(=O)[C@H](CCC(N)=O)NC(=O)[C@H](Cc3cn(C)c4ccccc34)NC(=O)[C@H]([C@@H](C)O)NC(=O)[C@H](CC(N)=O)NC(=O)[C@H](NC(C)=O)CCCCNC(=O)C[C@@H](C(=O)N[C@@H](CC(N)=O)C(=O)N[C@@H](CC(N)=O)C(N)=O)NC(=O)[C@](C)(CC(C)C)NC(=O)[C@H](Cc3cccc4ccccc34)NC2=O)cc1` [compound 23] (Ac-[dK]NT[Trp(1-Me)]QRY(Me)[1Nal][αMeL]DNN-NH2; lactam 1-10), the IC50 in test [1] came out at 1960 nM; on human IL-23R it was 12 nM.
Consider `COc1ccc(C[C@@H]2NC(=O)[C@H](CCCNC(=N)N)NC(=O)[C@H](CCC(N)=O)NC(=O)[C@H](Cc3cn(C)c4ccccc34)NC(=O)[C@H]([C@@H](C)O)NC(=O)[C@H](CC(N)=O)NC(=O)[C@H](NC(C)=O)CCCCNC(=O)C[C@@H](C(=O)N[C@@H](CC(N)=O)C(=O)N[C@@H](CC(N)=O)C(N)=O)NC(=O)[C@](C)(CC(C)C)NC(=O)[C@H](Cc3ccc4ccccc4c3)NC2=O)cc1` [compound 24] (Ac-[dK]NT[Trp(1-Me)]QRY(Me)[2Nal][αMeL]DNN-NH2; lactam 1-10), for which the IC50 in test [1] is 385 nM; at human IL-23R, 1.21 nM.
For `COc1ccc(C[C@@H]2NC(=O)[C@H](CCCNC(=N)N)NC(=O)[C@H](CCC(N)=O)NC(=O)[C@H](Cc3cn(C)c4ccccc34)NC(=O)[C@H]([C@@H](C)O)NC(=O)[C@H](CC(N)=O)NC(=O)[C@H](NC(C)=O)CCCCNC(=O)C[C@@H](C(=O)N[C@@H](CC(N)=O)C(=O)N[C@@H](CC(N)=O)C(N)=O)NC(=O)[C@@H](Cc3cscn3)NC(=O)[C@H](Cc3ccc4ccccc4c3)NC2=O)cc1` [compound 25] (Ac-[dK]NT[Trp(1-Me)]QRY(Me)[2Nal][dAla(4-thiazolyl)]DNN-NH2; lactam 1-10) the same measures were 3830 nM and 9.61 nM.
The corresponding values for `COc1ccc(C[C@@H]2NC(=O)[C@H](CCCNC(=N)N)NC(=O)[C@H](CCC(N)=O)NC(=O)[C@H](Cc3c[nH]c4ccccc34)NC(=O)[C@H]([C@@H](C)O)NC(=O)[C@H](CC(N)=O)NC(=O)[C@H](NC(C)=O)CCCCNC(=O)C[C@@H](C(=O)N[C@@H](CC(N)=O)C(=O)N[C@@H](CC(N)=O)C(N)=O)NC(=O)[C@H](CCCNC(N)=O)NC(=O)[C@H](Cc3ccc4ccccc4c3)NC2=O)cc1` [compound 29] (Ac-[dK]NTWQRY(Me)[2Nal][Cit]DNN-NH2; lactam 1-10) are 2720 nM and 5.63 nM.
The corresponding values for `COc1ccc(C[C@@H]2NC(=O)[C@H](C(C)C)NC(=O)[C@H](CCC(N)=O)NC(=O)[C@H](Cc3c[nH]c4ccccc34)NC(=O)[C@H]([C@@H](C)O)NC(=O)[C@H](CC(N)=O)NC(=O)[C@H](NC(C)=O)CCCCNC(=O)C[C@@H](C(=O)N[C@@H](CC(N)=O)C(=O)N[C@@H](CC(N)=O)C(N)=O)NC(=O)C(C)(C)NC(=O)[C@H](Cc3ccc4ccccc4c3)NC2=O)cc1` [compound 31] (Ac-[dK]NTWQVY(Me)[2Nal][Aib]DNN-NH2; lactam 1-10) are 128 nM and 8.27 nM.
Consider `COc1ccc(C[C@@H]2NC(=O)C(C)(C)NC(=O)[C@H](CCC(N)=O)NC(=O)[C@H](Cc3c[nH]c4ccccc34)NC(=O)[C@H]([C@@H](C)O)NC(=O)[C@H](CC(N)=O)NC(=O)[C@H](NC(C)=O)CCCCNC(=O)C[C@@H](C(=O)N[C@@H](CC(N)=O)C(=O)N[C@@H](CC(N)=O)C(N)=O)NC(=O)C(C)(C)NC(=O)[C@H](Cc3ccc4ccccc4c3)NC2=O)cc1` [compound 32] (Ac-[dK]NTWQ[Aib]Y(Me)[2Nal][Aib]DNN-NH2; lactam 1-10), for which the IC50 in test [1] is 320 nM; at human IL-23R it was 2.68 nM.

A word on the IC50: it is the concentration needed to halve the response being measured.
